# Read-outs that look alike come from different tables or passages of the source. Numbered stars: 1 amine (or outer) side, 2 acyl side, 3 side chain; on linkers, the order of the positions; unused ones are H or OH. Bridge positions count the residues as written; N and C are the ends. Square brackets hold non-standard residues; d marks the D form. Peptide text beside a SMILES is read from it. * marks the point of attachment. C20 diacid = O=C(O)CCCCCCCCCCCCCCCCCCC(=O)*; γGlu = O=C(O)[C@H](CCC(=O)[*:2])N[*:1]; NMeI = CC[C@H](C)[C@H](NC)C(=O)O; Sar = CNCC(=O)O
# Key:
# [1] = Solubility assessment (turbidity absorbance at 325 nm); assay type: physicochemical; details: stock 2 mg/ml diluted 1:1, ambient temperature (typically 25°C), n=1; for Solubility, Acetate buffer pH 4: 100 mM acetate buffer pH 4.0; for Solubility, Acetate buffer pH 5: 100 mM acetate buffer pH 5.0; for Solubility, Histidine buffer pH 6: 100 mM histidine buffer pH 6.0; for Solubility, Histidine buffer pH 7: 100 mM histidine buffer pH 7.0; for Solubility, Phosphate buffer pH 6: 100 mM phosphate buffer pH 6.0; for Solubility, Phosphate buffer pH 7: 100 mM phosphate buffer pH 7.0; for Solubility, Phosphate buffer pH 7.5: 100 mM phosphate buffer pH7.5
# Method in brief: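 Peptide stock (2 mg/ml, water pH 2.5) diluted 1:1 into 100 mM acetate (pH 4.0, 5.0), histidine (pH 6.0, 7.0) or phosphate (pH 6.0–7.5) buffer; absorbance at 325 nm read at about 25°C, n=1. A325 ≤ 0.02 taken as solubility ≥ 1 mg/ml.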
# [2] = biological target: T1, human amylin receptor 3 (hAMYR3) consisting of hCTR2 co-expressed with human Receptor Activity Modifying Protein 3 (hRAMP3) (Homo sapiens, UniProt O60896+P30988); experiment: hAMYR3 assay: induction of cAMP (AlphaScreen cAMP Assay kit) in COS7 cells expressing hAMYR3; assay type: cell-based; details: cAMP induction in COS7 cells expressing hAMYR3; average of a minimum of 3 determinations; read-out: hAMY R3 EC50
# T1 construct: expressed in transfected cells
# T1 sequence (P30988 25-474): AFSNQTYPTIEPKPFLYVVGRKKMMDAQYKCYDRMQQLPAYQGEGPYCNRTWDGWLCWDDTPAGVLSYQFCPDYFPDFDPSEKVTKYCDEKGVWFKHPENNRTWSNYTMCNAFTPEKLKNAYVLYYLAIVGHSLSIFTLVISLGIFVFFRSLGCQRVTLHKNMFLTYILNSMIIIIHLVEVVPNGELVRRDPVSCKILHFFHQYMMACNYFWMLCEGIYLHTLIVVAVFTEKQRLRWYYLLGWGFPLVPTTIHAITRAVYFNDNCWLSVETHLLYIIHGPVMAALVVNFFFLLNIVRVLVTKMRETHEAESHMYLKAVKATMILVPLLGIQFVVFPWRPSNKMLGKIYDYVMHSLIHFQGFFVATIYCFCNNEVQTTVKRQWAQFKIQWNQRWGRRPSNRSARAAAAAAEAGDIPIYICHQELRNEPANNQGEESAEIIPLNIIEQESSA
# T1 sequence (O60896 24-148 partner): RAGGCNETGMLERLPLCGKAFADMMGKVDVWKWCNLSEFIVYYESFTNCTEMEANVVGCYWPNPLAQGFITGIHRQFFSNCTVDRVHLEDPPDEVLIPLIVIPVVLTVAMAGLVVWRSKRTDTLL
# Method in brief: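 Stable COS7 clone co-expressing hCTR2 and hRAMP3, stimulated 15 min at 37° C with increasing peptide in Tyrode buffer pH 7.4 with 100 µM IBMX and 0.1% casein. cAMP measured by AlphaScreen after lysis; EC50 and % efficacy versus pramlintide from 4PL fit.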
# [3] = biological target: T2, human calcitonin receptor (hCTR2) (Homo sapiens, UniProt P30988); experiment: hCTR2 assay: induction of cAMP (AlphaScreen cAMP Assay kit) in COS7 cells expressing hCTR2; assay type: cell-based
# T2 construct: expressed in transfected cells
# T2 sequence (P30988 25-474): T1 sequence (P30988 25-474)
# Method in brief: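 Functional agonism is measured as cAMP accumulation in a COS7 line stably transfected with hCTR2, lacking endogenous RAMPs. Peptides act for 15 min at 37° C with IBMX present, and curves are fitted with a 4-parameter logistic model.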
# [4] = cAMP induction in COS7 cells expressing hCTR2, average of a minimum of 3 determinations, read-out: hCTR2 EC50
smiles,measurement,setting,value
"CC[C@H](C)[C@@H](C(=O)N[C@@H](CC(C)C)C(=O)N[C@@H](CO)C(=O)N[C@@H](CO)C(=O)N[C@H](C(=O)N[C@@H](CCC(=O)O)C(=O)N[C@H](C(=O)NCC(=O)N[C@@H](CO)C(=O)N[C@@H](CCC(=O)O)C(=O)N[C@H](C(=O)N1CCC[C@H]1C(N)=O)[C@@H](C)O)C(C)C)[C@@H](C)O)N(C)C(=O)[C@H](C)NC(=O)CN(C)C(=O)[C@H](Cc1ccccc1)NC(=O)[C@H](CO)NC(=O)[C@H](CO)NC(=O)[C@H](CO)NC(=O)[C@H](CO)NC(=O)[C@H](CCCNC(=N)N)NC(=O)[C@H](Cc1c[nH]cn1)NC(=O)[C@H](CC(C)C)NC(=O)[C@H](Cc1ccccc1)NC(=O)[C@H](CCC(=O)O)NC(=O)[C@H](C)NC(=O)[C@H](CC(C)C)NC(=O)[C@H](CCCNC(=N)N)NC(=O)[C@H](CO)NC(=O)[C@@H](NC(=O)[C@H](C)NC(=O)[C@@H]1CSSC[C@H](NC(=O)[C@H](CCCNC(=N)N)NC(=O)CC[C@H](NC(=O)CCCCCCCCCCCCCCCCCCC(=O)O)C(=O)O)C(=O)N[C@@H](CC(N)=O)C(=O)N[C@@H]([C@@H](C)O)C(=O)N[C@@H](C)C(=O)N[C@@H]([C@@H](C)O)C(=O)N1)[C@@H](C)O [Compound 124, [19CD]-isoGlu-RC()NTATC()ATSRLAEFLHRSSSSF-Gly(Me)-A-Ile(Me)-LSSTEVGSETP-NH2] ({C20 diacid-γGlu}-RCNTATCATSRLAEFLHRSSSSF[Sar]A[NMeI]LSSTEVGSETP-NH2; disulfide 2-7)","Solubility, Acetate buffer pH 4",[1],SS (SS indicates solubility ≥ 1mg/ml)
same,"Solubility, Acetate buffer pH 5",[1],SS (SS indicates solubility ≥ 1mg/ml)
same,"Solubility, Histidine buffer pH 6",[1],SS (SS indicates solubility ≥ 1mg/ml)
same,"Solubility, Histidine buffer pH 7",[1],SS (SS indicates solubility ≥ 1mg/ml)
same,"Solubility, Phosphate buffer pH 6",[1],SS (SS indicates solubility ≥ 1mg/ml)
same,"Solubility, Phosphate buffer pH 7",[1],SS (SS indicates solubility ≥ 1mg/ml)
same,"Solubility, Phosphate buffer pH 7.5",[1],SS (SS indicates solubility ≥ 1mg/ml)
same,EC50,[2],170 pM
same,EC50,[3]; [4],140 pM
"CC[C@H](C)[C@@H](C(=O)N[C@@H](CC(C)C)C(=O)N[C@@H](CO)C(=O)N[C@@H](CO)C(=O)N[C@H](C(=O)N[C@@H](CCC(=O)O)C(=O)N[C@H](C(=O)NCC(=O)N[C@@H](CO)C(=O)N[C@@H](CCC(=O)O)C(=O)N[C@H](C(=O)N1CCC[C@H]1C(N)=O)[C@@H](C)O)C(C)C)[C@@H](C)O)N(C)C(=O)[C@H](C)NC(=O)CN(C)C(=O)[C@H](Cc1ccccc1)NC(=O)[C@H](CO)NC(=O)[C@H](CO)NC(=O)[C@H](CO)NC(=O)[C@H](CO)NC(=O)[C@H](CCCNC(=N)N)NC(=O)[C@H](Cc1c[nH]cn1)NC(=O)[C@H](CC(C)C)NC(=O)[C@H](Cc1ccccc1)NC(=O)[C@H](CCC(=O)O)NC(=O)[C@H](C)NC(=O)[C@H](CC(C)C)NC(=O)[C@H](CCCNC(=N)N)NC(=O)[C@H](CCC(N)=O)NC(=O)[C@@H](NC(=O)[C@H](C)NC(=O)[C@@H]1CSSC[C@H](NC(=O)[C@H](CCCNC(=N)N)NC(=O)CC[C@H](NC(=O)CCCCCCCCCCCCCCCCCCC(=O)O)C(=O)O)C(=O)N[C@@H](CO)C(=O)N[C@@H]([C@@H](C)O)C(=O)N[C@@H](C)C(=O)N[C@@H]([C@@H](C)O)C(=O)N1)[C@@H](C)O [Compound 126, [19CD]-isoGlu-RC()STATC()ATQRLAEFLHRSSSSF-Gly(Me)-A-Ile(Me)-LSSTEVGSETP-NH2] ({C20 diacid-γGlu}-RCSTATCATQRLAEFLHRSSSSF[Sar]A[NMeI]LSSTEVGSETP-NH2; disulfide 2-7)","Solubility, Acetate buffer pH 4",[1],SS (SS indicates solubility ≥ 1mg/ml)
same,"Solubility, Acetate buffer pH 5",[1],SS (SS indicates solubility ≥ 1mg/ml)
same,"Solubility, Histidine buffer pH 6",[1],SS (SS indicates solubility ≥ 1mg/ml)
same,"Solubility, Histidine buffer pH 7",[1],SS (SS indicates solubility ≥ 1mg/ml)
same,"Solubility, Phosphate buffer pH 6",[1],SS (SS indicates solubility ≥ 1mg/ml)
same,"Solubility, Phosphate buffer pH 7",[1],SS (SS indicates solubility ≥ 1mg/ml)
same,"Solubility, Phosphate buffer pH 7.5",[1],SS (SS indicates solubility ≥ 1mg/ml)
same,EC50,[2],280 pM
same,EC50,[3],210 pM
"CC[C@H](C)[C@@H](C(=O)N[C@@H](CC(C)C)C(=O)N[C@@H](CO)C(=O)N[C@@H](CO)C(=O)N[C@H](C(=O)N[C@@H](CCC(=O)O)C(=O)N[C@H](C(=O)NCC(=O)N[C@@H](CO)C(=O)N[C@@H](CCC(=O)O)C(=O)N[C@H](C(=O)N1CCC[C@H]1C(N)=O)[C@@H](C)O)C(C)C)[C@@H](C)O)N(C)C(=O)[C@H](C)NC(=O)CN(C)C(=O)[C@H](Cc1ccccc1)NC(=O)[C@H](CO)NC(=O)[C@H](CO)NC(=O)[C@H](CO)NC(=O)[C@H](CO)NC(=O)[C@H](CCCNC(=N)N)NC(=O)[C@H](Cc1c[nH]cn1)NC(=O)[C@H](CC(C)C)NC(=O)[C@H](Cc1ccccc1)NC(=O)[C@H](CCC(=O)O)NC(=O)[C@H](C)NC(=O)[C@H](CC(C)C)NC(=O)[C@H](CCCNC(=N)N)NC(=O)[C@H](CCC(N)=O)NC(=O)[C@@H](NC(=O)[C@H](C)NC(=O)[C@@H]1CSSC[C@H](NC(=O)[C@H](CCCNC(=N)N)NC(=O)CC[C@H](NC(=O)CCCCCCCCCCCCCCCCCCC(=O)O)C(=O)O)C(=O)N[C@@H](CC(=O)O)C(=O)N[C@@H]([C@@H](C)O)C(=O)N[C@@H](C)C(=O)N[C@@H]([C@@H](C)O)C(=O)N1)[C@@H](C)O [Compound 127, [19CD]-isoGlu-RC()DTATC()ATQRLAEFLHRSSSSF-Gly(Me)-A-Ile(Me)-LSSTEVGSETP-NH2] ({C20 diacid-γGlu}-RCDTATCATQRLAEFLHRSSSSF[Sar]A[NMeI]LSSTEVGSETP-NH2; disulfide 2-7)","Solubility, Acetate buffer pH 4",[1],SS (SS indicates solubility ≥ 1mg/ml)
same,"Solubility, Acetate buffer pH 5",[1],SS (SS indicates solubility ≥ 1mg/ml)
same,"Solubility, Histidine buffer pH 6",[1],SS (SS indicates solubility ≥ 1mg/ml)
same,"Solubility, Histidine buffer pH 7",[1],SS (SS indicates solubility ≥ 1mg/ml)
same,"Solubility, Phosphate buffer pH 6",[1],SS (SS indicates solubility ≥ 1mg/ml)
same,"Solubility, Phosphate buffer pH 7",[1],SS (SS indicates solubility ≥ 1mg/ml)
same,"Solubility, Phosphate buffer pH 7.5",[1],SS (SS indicates solubility ≥ 1mg/ml)
same,EC50,[2],580 pM
same,EC50,[3]; [4],190 pM
